Test results: PubChem BioAssay (NCI)
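Dose response: 5 concentrations. Exposure: 48 h. Format: 96-well plates. Endpoint: linear interpolation; highest concentration if not reached. TGI marks complete inhibition of growth.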

Experiments:
Assay in all cases: growth of human tumour cells (NCI), 48 h
SNB-19 CNS = system: SNB-19 CNS
OVCAR-3 ovarian = system: OVCAR-3 ovarian
A498 renal = system: A498 renal
UACC-257 melanoma = system: UACC-257 melanoma
RPMI-8226 leukemia = system: RPMI-8226 leukemia
SW-620 colon = system: SW-620 colon
SK-OV-3 ovarian = system: SK-OV-3 ovarian
HCT-116 colon = system: HCT-116 colon
ACHN renal = system: ACHN renal
TK-10 renal = system: TK-10 renal
RXF 393 renal = system: RXF 393 renal
LOX IMVI melanoma = system: LOX IMVI melanoma
MDA-MB-435 = system: MDA-MB-435
NCI-H460 lung = system: NCI-H460 lung
MCF7 breast = system: MCF7 breast
MOLT-4 leukemia = system: MOLT-4 leukemia
DU-145 prostate = system: DU-145 prostate
NCI-H522 lung = system: NCI-H522 lung
CCRF-CEM leukemia = system: CCRF-CEM leukemia

Compound | TGI (SNB-19 CNS) | TGI (OVCAR-3 ovarian) | TGI (A498 renal) | TGI (UACC-257 melanoma) | TGI (RPMI-8226 leukemia) | TGI (SW-620 colon) | TGI (SK-OV-3 ovarian) | TGI (HCT-116 colon) | TGI (ACHN renal) | TGI (TK-10 renal) | TGI (RXF 393 renal) | TGI (LOX IMVI melanoma) | TGI (MDA-MB-435) | TGI (NCI-H460 lung) | TGI (MCF7 breast) | TGI (MOLT-4 leukemia) | TGI (DU-145 prostate) | TGI (NCI-H522 lung) | TGI (CCRF-CEM leukemia)
COC(=O)c1ccc(NCc2cc(O)ccc2O)cc1O | 31.8 µM | 15.2 µM | 58.8 µM | 30.9 µM | 4.93 µM | 19.9 µM | > 55.5 µM | 36.3 µM | 22.2 µM | 33.2 µM | 21.6 µM | 32.1 µM | 23.2 µM | 31.2 µM | 21.6 µM | 8.49 µM | 25.3 µM | 1.59 µM | 
O=C(CCc1cccc(O)c1)NCCc1cccc(OCc2ccccc2)c1 | 63.7 µM | 26 µM | > 55.2 µM | 34.2 µM | > 60.1 µM | > 56.5 µM | 53.5 µM | 30.3 µM | > 78.3 µM | 55.2 µM | 46.4 µM | 29.8 µM | 29.6 µM | 34.5 µM | 40.4 µM | 43.5 µM | > 80 µM | 33.4 µM | 42.4 µM
Nc1cnc2c(c1)c(=O)nc1n2CCS1 | > 100 µM | > 100 µM | > 100 µM | > 100 µM | > 100 µM | > 100 µM | > 100 µM | > 100 µM | > 100 µM | > 100 µM | > 100 µM | > 100 µM | > 100 µM | > 100 µM | > 100 µM | > 100 µM | > 100 µM |  | > 100 µM
CCCCCCCCCC(=O)CC(=O)c1c(O)cc(O)cc1O | 68.1 µM | 53.2 µM | 71.3 µM | 63.4 µM | 37.1 µM | > 75 µM | > 75 µM | > 75 µM | > 75 µM | > 75 µM | 31.1 µM | 35.4 µM | 39.1 µM |  | > 75 µM | 32.1 µM | 57.9 µM | 47.3 µM | > 75 µM
COc1ccc(-n2c(=O)n(C)c(=O)n2-c2c(C)c(C)c(C)c(C)c2C)cc1 | > 100 µM | > 100 µM | > 100 µM | > 100 µM | > 100 µM | > 100 µM | > 100 µM | > 100 µM | > 100 µM | > 100 µM | > 100 µM | > 100 µM | > 100 µM | > 100 µM | > 100 µM | > 100 µM | > 100 µM | > 100 µM | > 100 µM
CN(CC#N)C(=O)Cc1ccc([N+](=O)[O-])cc1 | > 10 µM | > 10 µM | > 10 µM | > 10 µM | > 10 µM | > 10 µM | > 10 µM | > 10 µM | > 10 µM | > 10 µM | > 10 µM | > 10 µM | > 10 µM | > 10 µM | > 10 µM | > 10 µM | > 10 µM |  | > 10 µM
CC(=O)O/C=C\OC1CCCC1 | > 100 µM | > 100 µM | > 100 µM | > 100 µM | > 100 µM | > 100 µM | > 100 µM |  | > 100 µM | > 100 µM | > 100 µM | > 100 µM | > 100 µM | > 100 µM | > 100 µM | > 100 µM | > 100 µM | > 100 µM | > 100 µM
CCOC(=O)c1c(N2CCOCC2)[nH]c(=O)c(C(c2ccc(Cl)c([N+](=O)[O-])c2)c2c(O)c(C(=O)OCC)c(N3CCOCC3)[nH]c2=O)c1O | 79.3 µM | 35.5 µM | > 100 µM | > 100 µM | > 100 µM | 58.7 µM | > 100 µM | 63.6 µM | > 100 µM | > 100 µM | > 100 µM | 48.1 µM | > 100 µM | > 100 µM | 69.6 µM | 57.8 µM | 55.8 µM | 55.2 µM | 40.4 µM
CN(C)/C=N/S(=O)(=O)c1nn2c(C=O)c(-c3ccc([N+](=O)[O-])cc3)nc2s1 | > 100 µM | 18 µM | > 100 µM | 40.5 µM | > 60.9 µM | > 34 µM | > 100 µM | 6.51 µM | 10.5 µM | 21.6 µM | > 67 µM | 27 µM | 50.4 µM | > 85.9 µM | > 42 µM | > 21.8 µM | > 41.6 µM | 3.86 µM | 19.2 µM
COc1ccccc1OC(=O)/C=C/c1ccccc1 | > 100 µM | > 100 µM | > 100 µM | > 100 µM | > 100 µM | > 100 µM | > 100 µM | > 100 µM | > 100 µM | > 100 µM | > 100 µM | > 100 µM | > 100 µM | > 100 µM | > 100 µM | > 100 µM | > 100 µM | > 100 µM | 
NC(N)=NS(=O)(=O)c1ccc(NNc2c3ccccc3nc3c(C(=O)Nc4ccc(S(N)(=O)=O)cc4)cccc23)cc1 | > 100 µM | > 100 µM | > 100 µM | > 100 µM | > 100 µM | > 100 µM | > 100 µM | > 100 µM | > 100 µM | > 100 µM | > 100 µM | 29.4 µM | > 100 µM | > 100 µM | 70.5 µM | 70.6 µM | > 100 µM | > 100 µM | 88.7 µM
CC1CC(NN(C)C)C2(C(N)=O)C(N)=NC(=O)C12C#N (stereo not drawn) | > 100 µM |  | > 100 µM | > 100 µM | > 100 µM | > 100 µM | > 100 µM | > 100 µM | > 100 µM | > 100 µM | > 100 µM | > 100 µM | > 100 µM |  | > 100 µM | > 100 µM | > 100 µM | > 100 µM | > 100 µM
Cc1cc(C)c2c(c1)C(=O)C1(C2)Cc2c(ccc(C)c2C)C1=O (stereo not drawn) | > 100 µM | > 100 µM | > 100 µM | > 100 µM | > 100 µM | > 100 µM |  | > 100 µM | > 100 µM | > 100 µM | > 100 µM | > 100 µM | > 100 µM | > 100 µM | > 100 µM | > 100 µM | > 100 µM | > 100 µM | > 100 µM
